Like-named read-outs stand apart in the source and are kept apart here. Each block holds one compound with its values, some of them ahead of it.
What was measured:
[1] = system: normal skin of CD Hairless male rats; format: in vivo, rat
Text: We tested metallo- and metal-free tetrapyrroles systemically (see following section) for normal skin response in relation to the pharmacodynamic distribution of the photosensitizers in CD hairless rats. The skin of CD hairless rats are poorly developed, often referred to as hyperkeratotic, with various sized cystic hair follicles containing concentric lamellar accumulations of keratinaceous material, which are often associated with enlarged sebaceous glands. It quickly became apparent that gallium tetrapyrroles induced a marked clearing of the hyperkeratotic lesions in the treatment areas on the hairless rats. In fact, this clearing could be induced without necrosis of the skin. No other metallotetrapyrrole type produced such effects. This observation led us to assess the metallotetrapyrrolic compounds for skin restructuring effects both topically and systemically and for their ability to reduce hair growth in the following animal models.
Photosensitizer normal skin response as well as skin healing response, was evaluated using CD Hairless male rats. Photosensitizers were administered in an liposomal egg yolk phospholipid formulation at 1, 1.5 and 2 μmol/kg body weight formulation per dose group as a single bolus intravenous injection given through a marginal tail vein using a 27 gauge needle and a 1 cc tuberculin syringe. Normal skin responses were evaluated by irradiating several spots on the skin of the rat with a 532 nm laser (150 mW/cm^2, 150J, 1 cm diameter) at 1, 6, 24, 48, and 96 hrs post injection. Normal skin responses were evaluated and documented. The time at which the last spot is observed at the concentration injected is reported in the far right hand column in Tables 3, 4, 5 and 6. Skin samples were taken for histological evaluation at days 1, 10, 20 and 22 post light treatment. Rats were housed under normal lighting and all study procedures involving the test article were conducted under light filtered through blue and green Roscolox light filters to prevent photoactivation or degradation of the drug.

[2] = system: normal uninjured rat carotid arteries (medial and adventitial cell populations); assay: In vivo rat carotid artery acellularity after PDT; design: species or system Sprague Dawley rats; conditions: for Max % rat Artery Accelularity: Table 3, 50 J/cm^2, 3 days post treatment; for Max % Rat Artery Accelularity: Table 4
Description: The acute effects of metallated photosensitizers, in response to light activation, to cause depletion of cell populations in the medial and adventitial layers of vessels was measured in normal uninjured rat carotid arteries. […] Shortly before the light treatment, the rats were anaesthetized with 3.5% isoflurane (Abbott Laboratories, IL, USA) and the femoral region of the right leg was shaved and cleaned. […] A direct arteriotomy was performed and a light balloon catheter ([…] Medical Technologies, Inc) was introduced into the vessel and advanced retrogradely into a non-manipulated region of the left common carotid artery via the abdominal aorta. […] After light treatment and removal of the catheter, the right femoral artery was tied off and the skin wound was closed. Rats were sacrificed three days post treatment as this corresponds to the known peak time that vascular cells, e.g., VSMC and myofibroblasts, proliferate and migrate in response to an injury. The area spanning both left and right carotid arteries and surrounding tissue was harvested, fixed, embedded in paraffin and sectioned. The tissues were stained with Hematoxylin and Eosin (Fisher Scientific, PA) and examined by light microscopy to histologically assess the cell population density in the medial and adventitial layers of the PDT-treated vessel wall. […] Metallo azaporphyrins with Ga, Zn, Al, Sn were excited at 575 nm, while Pt azaporphyrins were excited at 532 nm.

[3] = system: V79 (Chinese Hamster Lung Fibroblasts) cells; assay: In vitro cytotoxicity assay (light EC50, Alamar blue); format: cell-based
Description: The in vitro biological evaluation of photosensitizers for their ability to photosensitize cells was performed using standard procedures. Using 5% FBS/DMEM phenol-free media, wells (180 μl/well) were plated with 5×10^4 V79 (Chinese Hamster Lung Fibroblasts) cells/ml into two 96 well plates. Plate 1 was light-treated and plate 2 served as a control. The plates were Incubated at 37° C., 5% CO2 for 3-5 hours. Standard solutions of the photosensitizers were dissolved in pre-filtered Dimethyl Sulfoxide (DMSO). Drug was diluted in 5% FBS DMEM phenol free medium. Final drug concentrations for light and dark experiments were 0.01, 0.1, 1.0, 3.0 and 5.0 μM. Twenty microliters of each concentration were added to six replicate wells to the light and dark plate. The plates were wrapped in aluminum foil to avoid photoactivation and mixed in a gyratory shaker for approximately 2 minutes. Both plates were incubated for 24 hours at 37° C., 5% CO2. After a 24 hour incubation, drug-containing media was aspirated from the plates. Each well was rinsed with 180 μl Hepes buffer salt solution (HBSS) then aspirated to remove the HBSS. 180 μl of fresh media were added (5% FBS/DMEM phenol-free) to each well. […] Plate 2 was not light treated. Immediately after light treatment, 20 μl Alamar blue was added to each well in plate 1. Alamar blue was added to plate 2 immediately after fresh media was added. The plates were mixed on a gyratory shaker for 5 min.
Both plates were incubated under dark conditions for 24 hours at 37° C., 5% CO2. After 24 hour incubation, the plates were read on a plate reader spectrophotometer (Spectra Max 250) at wavelengths 570 and 600 nm. and the percentage of cell survival recorded.

[4] = Table 3 porphyrins, 24 h drug incubation, 532 nm, 1.25 J/cm^2, read-out: In Vitro EC50 Light
[5] = Table 3, time of last skin spot observed post injection, 1 μmol, 532 nm laser
[6] = Table 4 azaporphyrins, 575 nm (Pt azaporphyrins 532 nm), 1.25 J/cm^2, read-out: In Vitro EC(50)

Compound: CCC1=C(C)C2=NC1=Cc1c(C)c(CC)c3[n]1[Pt][n]1c(c(C)c(CCCC(=O)OC)c1=CC1=NC(=C3)C(C)=C1CCCC(=O)OC)=C2 [Example 47, Platinum 8,13-diethyl-3,7,12,17-tetramethylporphyrin-2,18-di(butanoic acid methyl ester)]
- EC50 [3, 4]: 200 nM
- Normal skin Response (1 μmol) [1, 5]: 48 h

Compound: CCC1=C(C)c2cc3[n-]c(cc4nc(cc5[n-]c(cc1n2)c(C)c5CCC(=O)NCCCO)C(CCC(=O)NCCCO)=C4C)c(C)c3CC.[Cl-].[Ga+3] [Example 66, Gallium Chloride Mesoporphyrin di(3-hydroxypropylamide)]
- EC50 [3, 4]: 200 nM
- Normal skin Response (1 μmol) in hrs ([1]; rat, in vivo): None

Compound: CCC1=C(C)c2cc3[n-]c(cc4nc(cc5[n-]c(cc1n2)c(C)c5CC)C(C)=C4CCCN1CCCC1)c(CCCN1CCCC1)c3C.[In+3].[OH-] [Example 76, Indium hydroxy 8,13-diethyl-3,7,12,17-tetramethylporphyrin-2,18-di(3-(N-pyrrolidino)propyl)]
- EC50 [3, 4]: 20 nM
- Normal skin Response (1 μmol) [1, 5]: 96 h

Compound: CCC1=C(C)c2cc3[n-]c(cc4nc(cc5[n-]c(cc1n2)c(C)c5CC)C(C)=C4CCCN(CC)CC)c(CCCN(CC)CC)c3C.[Zn+2] [Example 79, Zinc 8,13-diethyl-3,7,12,17 tetramethylporphyrin-2,18-di((N,N-diethyl)-3-aminopropyl)]
- Normal skin Response (1 μmol) in hrs ([1]; rat, in vivo): None

Compound: CCOP(=O)(CCCC1=C(C)c2cc3cc(C)c(cc4nc(cc5[n-]c(cc1n2)c(CCCP(=O)(OCC)OCC)c5C)C(C)=C4)[n-]3)OCC.[Cl-].[In+3] [Example 81, Indium Chloride 3,7,12,17-tetramethylporphyrin-2,18-di((3′-diethylphosphono)propyl)]
- EC50 [3, 4]: 400 nM
- Normal skin Response (1 μmol) [1, 5]: 48 h
- photodynamic activity in vivo ([1]; text b240): photodynamically active in vivo

Compound: CC1=C(CCC(=O)[O-])c2cc3[n-]c(cc4nc(cc5[n-]c(cc1n2)c(CCC(=O)[O-])c5C)C(C)=C4CCC(=O)[O-])c(CCC(=O)[O-])c3C.[In+3].[Na+].[Na+].[Na+].[Na+].[OH-] [Example 113, Indium Hydroxy Coproporphyrin III Tetra Sodium Salt]
- EC50 [3, 4]: 3600 nM
- Max % rat Artery Accelularity ([2]; drug dose 1 μMol): 0%

Compound: Aluminum Chloride 8,13-diethyl-3,7,12,17-tetramethylporphyrin-2,18-di(butanoic acid methyl ester) [Example 48]
- EC50 [3, 4]: 4000 nM
- Max % rat Artery Accelularity ([2]; drug dose 1 μMol): 0%

Compound: Gallium Chloride 7,8,12,13-tetraethyl-12,17-dimethyl-10-azaporphyrin-2,18-di(3′-hydroxypropyl) [Example 23]
- EC50 [3, 6]: 50 nM
- Max % Rat Artery Accelularity ([2]; drug dose 1 μMol, 575 nm (Pt 532 nm)): 50%

Compound: Gallium Chloride 8,13-diethyl-3,7,12,17-tetramethylporphyrin-2,18-di(butanoic acid methyl ester) [Example 26]
- EC50 [3, 4]: 370 nM
- Max % rat Artery Accelularity ([2]; drug dose 1 μMol): 75%

Compound: Zinc 8,13-diethyl-3,7,12,17-tetramethylporphyrin-2,18-di(butanoic acid methyl ester) [Example 49]
- EC50 [3, 4]: 4000 nM
- Max % rat Artery Accelularity ([2]; drug dose 1 μMol): 0%

The next lines start with results.

- Normal skin Response (1 μmol) ([1]; rat, in vivo): 24 h
Compound: CCC1=C(C)c2cc3[n-]c(cc4nc(cc5[n-]c(cc1n2)c(C)c5CCC(=O)OC)C(CCC(=O)OC)=C4C)c(C)c3CC.[Zn+2] [Example 33, Zinc Mesoporphyrin Dimethyl Ester]
- Max % rat Artery Accelularity ([2]; drug dose 1 μMol): 0%

- Normal skin Response (1 μmol) in hrs ([1]; rat, in vivo): None
Compound: COC(=O)CCC1=C(C)c2cc3[n-]c(cc4nc(cc5[n-]c(cc1n2)c(CCC(=O)OC)c5C)C(C)=C4C=CCN(C)C)c(C)c3C=CCN(C)C.[Ga+3].[OH-] [Example 43, Gallium Hydroxy 3,8-Bis-(N,N-dimethylaminoprop-2-en-3-yl)deuteroporphyrin dimethyl ester]
- EC50 [3, 4]: 2450 nM

- Normal skin Response (1 μmol) in hrs ([1]; rat, in vivo): None
Compound: CCC1=C(C)C2=[N+]3C1=Cc1c(C)c(CC)c4[n]1[Zn-2]31[n]3c(c(C)c(CCC(=O)NCCCN5CCOCC5)c3=CC3=[N+]1C(=C4)C(C)=C3CCC(=O)NCCCN1CCOCC1)=C2 (centres unmarked) [Example 63, Zinc Mesoporphyrin 3-(N-morpholino)propylamide]
- EC50 [3, 4]: 25 nM

- Normal skin Response (1 μmol) in hrs ([1]; rat, in vivo): None
Compound: CCC1=C(C)C2=[N+]3C1=Cc1c(C)c(CC)c4[n]1[Ga-2]31([OH])[n]3c(c(C)c(CCC(=O)NCCN(C)C)c3=CC3=[N+]1C(=C4)C(C)=C3CCC(=O)NCCN(C)C)=C2 [Example 70, Gallium Hydroxy Mesoporphyrin di-(N,N-dimethylaminoethylamide)]
- EC50 [3, 4]: 1700 nM

- Normal skin Response (1 μmol) ([1]; rat, in vivo): 96 h
Compound: CCC1=C(C)c2cc3[nH]c(cc4nc(cc5[nH]c(cc1n2)c(C)c5CCC(=O)NCCN(C)C)C(CCC(=O)NCCN(C)C)=C4C)c(C)c3CC.[Pt] [Example 71, Platinum Mesoporphyrin di(N,N-dimethylaminoethylamide)]
- EC50 [3, 4]: 200 nM

- Normal skin Response (1 μmol) ([1]; rat, in vivo): 96 h
Compound: CCC1=C(CC)C2=[N+]3C1=Nc1c(CC)c(CC)c4[n]1[Pt-2]31[n]3c(c(C)c(CCC(=O)[O-])c3=CC3=[N+]1C(=C4)C(C)=C3CCC(=O)[O-])=C2.[K+].[K+] (centres unmarked) [Example 86, Platinum 7,8,12,13-tetraethyl-12,17-dimethyl-10-azaporphyrin-2,18-di(propionic acid Potassium Salt)]

- Normal skin Response (1 μmol) in hrs ([1]; rat, in vivo): None
- normal skin response at the drug doses used ([1]; rat, in vivo): no observed normal skin response
Compound: CCC1=C(CC)C2=[N+]3C1=Nc1c(CC)c(CC)c4[n]1[Ga-2]31([OH])[n]3c(c(C)c(CCC(=O)[O-])c3=CC3=[N+]1C(=C4)C(C)=C3CCC(=O)[O-])=C2.[Na+].[Na+] [Example 88, Gallium Hydroxy 7,8,12,13-tetraethyl-12,17-dimethyl-10-azaporphyrin-2,18-di(propionic acid Sodium Salt)]
- acellularity following PDT of rat arteries at longer treatment times post injection ([2]; 16, 24 hrs post injection): significant acellularity
- accelularity in rat artery at a four hour treatment point ([2]; 4 hrs post administration): 10%
- Max % Rat Artery Accelularity ([2]; drug dose 4 μMol, 4 hrs): 10 (4 hrs) %
- Max % Rat Artery Accelularity ([2]; drug dose 4 μMol, 24 hrs): 100 (24 hrs) %

- Normal skin Response (1 μmol) ([1]; rat, in vivo): 96 h
Compound: CCC1=C(CC)C2=Nc3c(CC)c(CC)c4[n]3[In]([Cl])[n]3c(c(C)c(CCCOC)c3=CC3=NC(=C4)C(C)=C3CCCOC)=CC1=N2 [Example 107, Indium Chloride 7,8,12,13-tetraethyl-12,17-dimethyl-10-azaporphyrin-2,18-di(3-methoxypropyl)]
- EC50 [3, 6]: 50 nM

- Normal skin Response (1 μmol) in hrs ([1]; rat, in vivo): None
Compound: Platinum Mesoporphyrin di(2-ethoxyethanolamide) [Example 69]
- EC50 [3, 4]: 500 nM

Reference: US6827926B2, “Metallotetrapyrrolic photosensitizing agents for use in photodynamic therapy” (Miravant Pharmaceuticals, Inc., priority 2001, dated 2004)
